# Key:
# [1] = biological target: T1, purified CD26 (Homo sapiens, UniProt P27487); experiment: Conversion of peptide prodrugs to parent compound by purified CD26 (HPLC); assay type: biochemical; details: Table 1, purified CD26 1.5 mUnits
# T1 construct: made in house
# Procedure: To reveal whether CD26 recognizes such synthetic di/tripeptide derivatives of lipophilic nucleoside analogues as a substrate, 50 μM CAM-405 or CAM-431 was exposed to 5.7 mUnits of purified CD26, and the conversion of CAM-405 or CAM-431 to respectively CAM-212 or CAM-403 (Val-NAP-TSAO) was recorded in function of incubation time by HPLC analysis. […] Within the first 10 min of the reaction, at least 20% of CAM-405 had been converted to CAM-212, fifty percent of the TSAO dipeptide derivative was converted to CAM-212 within 30 min of the reaction and ˜67% of CAM-405 was hydrolyse after 60 min. Thus, the reaction rate started already to slow down after the first 10 min of drug exposure (FIG. 2). Most likely, the release of the reaction product Val-Pro dose-dependently feed-back inhibited the CD26-catalysed dipeptidyl-peptidase reaction. […] Thus, in the presence of 50 μM CAM-405, hydrolysis of 50% of CAM-405 to CAM-212 results in the appearance of 25 μM Val-Pro, that is a concentration that (feed-back) inhibits the CD26 reaction by ˜50%. These findings explain why the CD26-catalysed reaction levels-off shortly after the start of the exposure of the drug to CD26. […] Thus, a further level of modulation of the rate of prodrug release can be introduced by choosing a dipeptide moiety that competes for the active site of CD26, until the dipeptide has diffused from the tissue wherein CD26 is present. The inhibitory activity of any dipeptide can be evaluated by the above mentioned assay.
# The conversion rate in function of time is given in Table 1 for NAP-TSAO-dipeptides where the dipeptide consists of: Val-Pro, Val-D-Pro, Asp-Pro, Lys-Pro, Tyr-Pro, Gly-Pro, Val-4-hydroxyPro, Gly-3,4-dihydroxyPro, but also Val-Gly, Val-Ala, Val-Leu and Val-Phe. It is clear that the conversion rate to the parent NAP-TSAO differs depending the nature of the dipeptide. Also, when the terminal amine of the dipeptide has been blocked by a lipophilic group (i.e. methyl, Z or Fmoc), the prodrug looses measurable substrate activity for CD26.
# The conversion rate in function of time is given in Table 2 for tetrapeptide NAP-TSAO compounds where the tetrapeptide consists of: Val-Pro-Val-Pro [SEQ ID no:6] (CAM 467), Val-Ala-Val-Pro [SEQ ID no:7] (CAM 473) or Lys-Pro-Asp-Pro [SEQ ID no:8] (CAM 477). […] Only traces of dipeptide prodrug (CAM 405) is seen as intermediate in the conversion of the tetrapeptide CAM 473 to NAP-TSAO.
# (§1) All enzyme activity assays were performed in Eppendorf tubes on a heating block at 37° C. To each tube were added 32 μl CD26 (at a final concentration of 1.5 milliUnits) or 10 μl foetal bovine serum (BS) (final concentration: 2.5% BS in PBS; preheated at 56° C. for 30 min) or 10 μl human serum (HS) (final concentration: 2.5% HS in PBS), 40 μl of appropriate concentrations of inhibitor (Diprotin A) solution in PBS (for the exact concentrations, see the legend to FIG. 5), CAM-405 (the substrate of the reaction) at […] (final concentration) and PBS to reach a total volume of 400 μl. The pH of the reaction mixture was 7.5, which is virtually identical to the physiological pH of plasma. The reaction was started by the addition of the enzyme or serum and carried out at 37° C. After 5 hr, 100 μl reaction mixture was taken from the Eppendorf tube and added to 200 μl cold methanol to precipitate the proteins. After 10 min standing on ice, the contents of the tubes were centrifuged and the supernatants analysed by HPLC on a reverse phase column (RP-8, Merck Laboratories). CAM-405 was separated from CAM-212 (the product of the reaction) by a gradient of 50 mM sodium phosphate+5 mM heptane sulfonic acid pH 3.2 (Buffer A) and acetonitrile (Buffer B) as follows: Buffer A: 98%+2% Buffer B, 2 min; linear gradient to 20% Buffer. […]
# [2] = Solubility in Milli-Q water; assay type: physicochemical; details: 1 mg/ml in Milli-Q water; 2 × 10 sec sonication, 4 days shaking, room temperature; centrifugation, U.V. spectrum
# Description: It is also clear that the nature of the dipeptide moiety present on NAP-TSAO markedly affect prodrug solubility in water.
# [3] = Conversion of prodrugs to parent compound by human serum diluted in PBS; assay type: in vitro ADME; details: 50 μM; 20% human serum in PBS (FIG. 6)
# Procedure: Human and bovine serum were incubated for 3 hr, 6 hr and/or 24 hr at 37° C. in the presence of 50 μM CAM-405. The sera were diluted in PBS at a final concentration of 0.5, 1, 2.5 or 5%. […] The longer the incubation time, and the higher the serum concentration used, the faster the conversion of CAM-405 to CAM-212 occurred (FIG. 4). As also noted for CD26, HS- and BS-catalysed reaction slowed down in function of time, and was not linearly proportional with serum concentration (FIG. 4). These findings provide again evidence for a pronounced feed-back inhibition of dipeptidyl-peptidase activity in human and bovine serum by the released Val-Pro dipeptide. HS was more efficient in converting CAM-405 to CAM-212 than BS (FIG. 4). Since 1% HS is able to hydrolyse ˜20% of 50 μM CAM-405 within 3 hrs of incubation, it could be calculated that undiluted serum would have been able to convert this prodrug amount to its parent compound at a hundred fold higher speed, that is, within 1.8 min, provided that no feed-back inhibition would have occurred (as expected in the intact organism where release of Pro-Val would immediately result in disappearance from the plasma due to several mechanisms including organ uptake, renal excretion, etc.).
# Only a very limited amount of NAP-TSAO (but not D-Pro-NAP-TSAO) had been detected (FIG. 6).
# Ten percent BS or HS converted 40 to 70% of PI-2 to PI-1 in one hour (FIG. 10). Two percent BS and HS converted PI-2 to PI-1 by 8% and 25%, respectively. After 4 hrs, 35% and 95% of compound was hydrolyzed by BS and HS, respectively (FIG. 11).
# The TSAO derivatives depicted in FIG. 1 can be synthesised as described below. GlyPro-pNA (GP-pNA), Diprotin A and Val-Pro were purchased from Sigma-Aldrich (Bornem, Belgium). CD26 was purified as described before [De Meester et al. J. Immunol. Methods (1996), 189: 99-105]. Foetal bovine serum (FBS) was obtained from Integro (Dieren, The Netherlands). Human serum represented a pooled serum that was derived from 10 healthy volunteers (blood donors). Human lymphocyte CEM cells were derived from the ATCC (Rockville, Md.).
# [4] = Effect of CD26 inhibitor on conversion of CAM-405 to CAM-212 by human serum; assay type: biochemical; details: 2.5% HS in PBS, 50 μM CAM-405
# Procedure: (§2) CD26-catalysed CAM-405 conversion to CAM-212 was recorded in the absence or presence of the CD26 inhibitor diprotin A (FIG. 5). […] These observations point to CD26 as the main and predominant enzyme responsible in HS and BS to remove the dipeptide part from the lipophilic NAP-TSAO dipeptide nucleoside analogue.
# as §1, with “Laboratories).” for “Laboratories). CAM-405 was separated from CAM-212 (the product of the reaction) by a gradient of 50 mM sodium phosphate+5 mM heptane sulfonic acid pH 3.2 (Buffer A) and acetonitrile (Buffer B) as follows: Buffer A: 98%+2% Buffer B, 2 min; linear gradient to 20% Buffer.”
# [5] = biological target: T1, purified CD26; experiment: Effect of CD26 inhibitor on conversion of CAM-405 to CAM-212 by purified CD26; assay type: biochemical; details: CD26 1.5 mUnits, 50 μM CAM-405
# Procedure: as §2
# as §1, with “Laboratories).” for “Laboratories). CAM-405 was separated from CAM-212 (the product of the reaction) by a gradient of 50 mM sodium phosphate+5 mM heptane sulfonic acid pH 3.2 (Buffer A) and acetonitrile (Buffer B) as follows: Buffer A: 98%+2% Buffer B, 2 min; linear gradient to 20% Buffer.”
# [6] = Effect of CD26 inhibitor on conversion of CAM-405 to CAM-212 by bovine serum; assay type: biochemical; details: 2.5% BS in PBS, 50 μM CAM-405
# Procedure: as §2
# as §1, with “Laboratories).” for “Laboratories). CAM-405 was separated from CAM-212 (the product of the reaction) by a gradient of 50 mM sodium phosphate+5 mM heptane sulfonic acid pH 3.2 (Buffer A) and acetonitrile (Buffer B) as follows: Buffer A: 98%+2% Buffer B, 2 min; linear gradient to 20% Buffer.”
# T1 sequence (P27487 whole entry): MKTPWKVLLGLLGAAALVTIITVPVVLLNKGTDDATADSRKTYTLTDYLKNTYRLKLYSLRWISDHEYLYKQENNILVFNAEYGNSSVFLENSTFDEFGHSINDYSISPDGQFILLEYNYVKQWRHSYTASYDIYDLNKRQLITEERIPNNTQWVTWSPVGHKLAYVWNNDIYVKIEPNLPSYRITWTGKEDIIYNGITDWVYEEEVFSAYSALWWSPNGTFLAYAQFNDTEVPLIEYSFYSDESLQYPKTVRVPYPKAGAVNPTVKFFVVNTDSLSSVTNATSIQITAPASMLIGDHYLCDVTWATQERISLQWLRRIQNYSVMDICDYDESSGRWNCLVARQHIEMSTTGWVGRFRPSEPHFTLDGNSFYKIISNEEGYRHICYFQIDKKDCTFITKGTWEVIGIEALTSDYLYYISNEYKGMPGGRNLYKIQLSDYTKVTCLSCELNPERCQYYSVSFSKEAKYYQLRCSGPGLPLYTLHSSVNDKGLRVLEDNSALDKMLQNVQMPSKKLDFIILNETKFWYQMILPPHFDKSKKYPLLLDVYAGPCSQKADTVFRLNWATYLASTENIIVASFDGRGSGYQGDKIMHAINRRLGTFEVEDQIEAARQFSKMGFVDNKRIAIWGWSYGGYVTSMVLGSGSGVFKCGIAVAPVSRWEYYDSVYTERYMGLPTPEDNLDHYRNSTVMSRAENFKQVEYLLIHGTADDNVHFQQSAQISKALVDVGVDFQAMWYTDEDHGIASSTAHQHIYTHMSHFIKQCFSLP
"Conversion % to parent compound by purified CD26, 1 h [1] [%]","Conversion % to parent compound by purified CD26, 4 h [1] [%]","Conversion % to parent compound by purified CD26, 24 h [1] [%]",Spectrum (~265 nm) [2],Suppression of conversion of CAM-405 to CAM-212 by purified CD26 at 100 μM inhibitor ([5]; 100 μM) [%],Prevention of conversion of CAM-405 to CAM-212 by purified CD26 at 1000 μM inhibitor ([5]; 1000 μM),Compound,"Conversion by 20% human serum, in words [3]",Suppression of conversion of CAM-405 to CAM-212 by HS at 100 μM inhibitor ([4]; 100 μM) [%],Prevention of conversion of CAM-405 to CAM-212 in HS at 1000 μM inhibitor ([4]; 1000 μM),Suppression of conversion of CAM-405 to CAM-212 by BS at 100 μM inhibitor ([6]; 100 μM) [%],Prevention of conversion of CAM-405 to CAM-212 in BS at 1000 μM inhibitor ([6]; 1000 μM)
0,0,0,1.886,,,"Cc1cn(C2OC(CO[Si](C)(C)C(C)(C)C)C3(OS(=O)(=O)C=C3N)C2O[Si](C)(C)C(C)(C)C)c(=O)n(CCCNC(=O)CNC(=O)[C@@H](N)C(C)C)c1=O (stereo partly drawn) [CAM-422, H-Val-Gly-NAP-TSAO]",efficiently (but solely) converted to Gly-NAP-TSAO,,,,
0,~1,~2,3.220,,,"Cc1cn(C2OC(CO[Si](C)(C)C(C)(C)C)C3(OS(=O)(=O)C=C3N)C2O[Si](C)(C)C(C)(C)C)c(=O)n(CCCNC(=O)[C@H]2CCCN2C(=O)[C@@H](N)C(C)C)c1=O (stereo partly drawn) [CAM-430, H-Val-D-Pro-NAP-TSAO]",very stable,,,,
,,,,> 50,nearly complete prevention,Diprotin A,,> 50,nearly complete prevention,> 50,nearly complete prevention

# — US8236756B2, “Prodrugs cleavable by CD26” (Consejo Superior de Investigaciones Clentificas (CSIC), priority 2003, dated 2012)
